#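 Compound exposure: 48 hours, 5 concentrations, 96-well plates. GI50: concentration for 50% inhibition of growth.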 The source made the active and inactive calls. Rule as the data show it: active = GI50 up to about 1.1 µM and inactive = higher.
# What was measured:
# Assay in all cases: NCI-60 cell line screen, 48 h
# 786-0 = test system: 786-0
# A498 = test system: A498
# A549 = test system: A549
# ACHN = test system: ACHN
# CAKI-1 = test system: CAKI-1
# CCRF-CEM = test system: CCRF-CEM
# COLO 205 = test system: COLO 205
# DLD-1 = test system: DLD-1
# DMS-114 = test system: DMS-114
# DMS-273 = test system: DMS-273
# HCT-116 = test system: HCT-116
# HCT-15 = test system: HCT-15
# HL-60 = test system: HL-60
# HOP-18 = test system: HOP-18
# HOP-62 = test system: HOP-62
# HOP-92 = test system: HOP-92
# HT-29 = test system: HT-29
# IGROV-1 = test system: IGROV-1
# K562 = test system: K562
# KM-20L2 = test system: KM-20L2
# KM12 = test system: KM12
# LOX IMVI = test system: LOX IMVI
# LXFL 529 = test system: LXFL 529
# M14 = test system: M14
# M19-MEL = test system: M19-MEL
# MOLT-4 = test system: MOLT-4
# Malme-3M = test system: Malme-3M
# NCI-H226 = test system: NCI-H226
# NCI-H23 = test system: NCI-H23
# NCI-H460 = test system: NCI-H460
# NCI-H522 = test system: NCI-H522
# OVCAR-3 = test system: OVCAR-3
# OVCAR-4 = test system: OVCAR-4
# OVCAR-5 = test system: OVCAR-5
# OVCAR-8 = test system: OVCAR-8
# RPMI-8226 = test system: RPMI-8226
# RXF 393 = test system: RXF 393
# SF-268 = test system: SF-268
# SF-295 = test system: SF-295
# SF-539 = test system: SF-539
# SK-MEL-28 = test system: SK-MEL-28
# SK-MEL-2 = test system: SK-MEL-2
# SK-MEL-5 = test system: SK-MEL-5
# SK-OV-3 = test system: SK-OV-3
# SN12C = test system: SN12C
# SNB-75 = test system: SNB-75
# SNB-78 = test system: SNB-78
# SR = test system: SR
# SW-620 = test system: SW-620
# TK-10 = test system: TK-10
# U-251 = test system: U-251
# UACC-257 = test system: UACC-257
# UACC-62 = test system: UACC-62
# UO-31 = test system: UO-31
# EKVX = test system: EKVX
# HCC 2998 = test system: HCC 2998
# SNB-19 = test system: SNB-19
smiles,measurement,setting,value
c1ccc(C2OCCO2)c(OCCOc2cc(OCCOc3ccccc3C3OCCO3)c(OCCOc3ccccc3C3OCCO3)cc2OCCOc2ccccc2C2OCCO2)c1,GI50,786-0,4.67 µM (inactive)
same,GI50,A498,15.8 µM (inactive)
same,GI50,A549,24.4 µM (inactive)
same,GI50,ACHN,24.7 µM (inactive)
same,GI50,CAKI-1,> 100 µM (inactive)
same,GI50,CCRF-CEM,> 100 µM (inactive)
same,GI50,COLO 205,> 100 µM (inactive)
same,GI50,DLD-1,> 100 µM (inactive)
same,GI50,DMS-114,11.8 µM (inactive)
same,GI50,DMS-273,15.3 µM (inactive)
same,GI50,HCT-116,14.5 µM (inactive)
same,GI50,HCT-15,> 100 µM
same,GI50,HL-60,> 100 µM (inactive)
same,GI50,HOP-18,> 100 µM (inactive)
same,GI50,HOP-62,13.3 µM (inactive)
same,GI50,HOP-92,5.28 µM (inactive)
same,GI50,HT-29,> 100 µM (inactive)
same,GI50,IGROV-1,12.4 µM (inactive)
same,GI50,K562,> 100 µM (inactive)
same,GI50,KM-20L2,> 100 µM (inactive)
same,GI50,KM12,91.8 µM (inactive)
same,GI50,LOX IMVI,49.4 µM (inactive)
same,GI50,LXFL 529,29.2 µM (inactive)
same,GI50,M14,26.7 µM (inactive)
same,GI50,M19-MEL,> 100 µM (inactive)
same,GI50,MOLT-4,> 100 µM (inactive)
same,GI50,Malme-3M,43.1 µM (inactive)
same,GI50,NCI-H226,13 µM (inactive)
same,GI50,NCI-H23,11.3 µM (inactive)
same,GI50,NCI-H460,24.3 µM (inactive)
same,GI50,NCI-H522,2.42 µM (inactive)
same,GI50,OVCAR-3,17.8 µM (inactive)
same,GI50,OVCAR-4,8.34 µM (inactive)
same,GI50,OVCAR-5,> 100 µM (inactive)
same,GI50,OVCAR-8,13.9 µM (inactive)
same,GI50,RPMI-8226,> 100 µM (inactive)
same,GI50,RXF 393,5.35 µM (inactive)
same,GI50,SF-268,15.3 µM (inactive)
same,GI50,SF-295,17.9 µM (inactive)
same,GI50,SF-539,10.7 µM (inactive)
same,GI50,SK-MEL-28,> 100 µM (inactive)
same,GI50,SK-MEL-2,16.5 µM (inactive)
same,GI50,SK-MEL-5,26.1 µM (inactive)
same,GI50,SK-OV-3,2.76 µM (inactive)
same,GI50,SN12C,> 100 µM (inactive)
same,GI50,SNB-75,2.16 µM (inactive)
same,GI50,SNB-78,5.46 µM (inactive)
same,GI50,SR,> 100 µM (inactive)
same,GI50,SW-620,81.3 µM (inactive)
same,GI50,TK-10,14.7 µM (inactive)
same,GI50,U-251,10.3 µM (inactive)
same,GI50,UACC-257,> 100 µM (inactive)
same,GI50,UACC-62,9.86 µM (inactive)
same,GI50,UO-31,12.9 µM (inactive)
Cc1ccc(C(=O)c2nnc(C(=O)c3ccc(C)cc3)nn2)cc1,GI50,786-0,28.2 µM (inactive)
same,GI50,A549,73.5 µM (inactive)
same,GI50,ACHN,76 µM (inactive)
same,GI50,CAKI-1,74.3 µM (inactive)
same,GI50,CCRF-CEM,18.8 µM (inactive)
same,GI50,COLO 205,70.1 µM (inactive)
same,GI50,DLD-1,43.2 µM (inactive)
same,GI50,DMS-273,39.4 µM (inactive)
same,GI50,EKVX,59.6 µM (inactive)
same,GI50,HCC 2998,> 100 µM (inactive)
same,GI50,HCT-116,57.5 µM (inactive)
same,GI50,HCT-15,76 µM
same,GI50,HL-60,19.7 µM (inactive)
same,GI50,HOP-18,33.4 µM (inactive)
same,GI50,HOP-62,39.4 µM (inactive)
same,GI50,HOP-92,32.1 µM (inactive)
same,GI50,HT-29,61.9 µM (inactive)
same,GI50,IGROV-1,95.9 µM (inactive)
same,GI50,K562,23.3 µM (inactive)
same,GI50,KM-20L2,65.9 µM (inactive)
same,GI50,KM12,62.7 µM (inactive)
same,GI50,LOX IMVI,17.6 µM (inactive)
same,GI50,LXFL 529,53.2 µM (inactive)
same,GI50,M14,22.2 µM (inactive)
same,GI50,M19-MEL,26.1 µM (inactive)
same,GI50,MOLT-4,34.1 µM (inactive)
same,GI50,Malme-3M,65.5 µM (inactive)
same,GI50,NCI-H226,56 µM (inactive)
same,GI50,NCI-H23,> 100 µM (inactive)
same,GI50,NCI-H460,18.4 µM (inactive)
same,GI50,NCI-H522,35.5 µM (inactive)
same,GI50,OVCAR-3,43.4 µM (inactive)
same,GI50,OVCAR-4,41.1 µM (inactive)
same,GI50,OVCAR-5,81.1 µM (inactive)
same,GI50,OVCAR-8,34.9 µM (inactive)
same,GI50,RPMI-8226,30.5 µM (inactive)
same,GI50,SF-268,21 µM (inactive)
same,GI50,SF-295,52.8 µM (inactive)
same,GI50,SF-539,38.9 µM (inactive)
same,GI50,SK-MEL-28,51.3 µM (inactive)
same,GI50,SK-MEL-2,38.4 µM (inactive)
same,GI50,SK-MEL-5,50.9 µM (inactive)
same,GI50,SK-OV-3,19.3 µM (inactive)
same,GI50,SN12C,45.3 µM (inactive)
same,GI50,SNB-19,41.5 µM (inactive)
same,GI50,SNB-75,> 100 µM (inactive)
same,GI50,SNB-78,> 100 µM (inactive)
same,GI50,SR,5.45 µM (inactive)
same,GI50,SW-620,20.8 µM (inactive)
same,GI50,TK-10,78.3 µM (inactive)
same,GI50,U-251,40.7 µM (inactive)
same,GI50,UACC-257,58.3 µM (inactive)
same,GI50,UACC-62,36.1 µM (inactive)
same,GI50,UO-31,39.2 µM (inactive)
